Values quoted from earlier work in patent publication US8398606B2, “Folded perineal pad” (QuantrRx Biomedical Corporation, priority 2007, dated 2013).

Parameters: dose or concentration left out as unconfirmed
Details: ILP system releasing of estradiol as its 3-acetate ester, in HRT; maintained level

## C[C@]12CC[C@@H]3c4ccc(O)cc4CC[C@H]3[C@@H]1CC[C@@H]2O [estradiol]
  circulating plasma concentration of the drug: 300 pmol/L
